Assay results reported in US11414402B2, “Sulfonamide-substituted cyanopyrrolidines with activity as DUB inhibitors” (MISSION THERAPEUTICS LIMITED, priority 2017, dated 2022).

Key:
USP30 = USP30 (Homo sapiens (Human), UniProt Q70CQ3); experiment: USP30 biochemical IC50 assay (fluorescence polarisation); settings: USP30 CD (57-517); 30 min preincubation at room temp; TAMRA-peptide-ubiquitin substrate 50 nM; read after 2-hour incubation; read-out: IC50 range
Description: (§1) A typical 8-point dilution series would be 100, 30, 10, 3, 1, 0.3, 0.1, 0.03 μM final. […] Either 1 μl of 50% DMSO or diluted compound was added to the plate. USP30 was diluted in reaction buffer (40 mM Tris, pH 7.5, 0.005% Tween 20, 0.5 mg/ml BSA, 5 mM beta-mercaptoethanol) to the equivalent of 0.05 μl/well and 10 μl of diluted USP30 was added to the compound. Enzyme and compound were incubated for 30 min at room temp. Reactions were initiated by the addition of 50 nM of TAMRA labelled peptide linked to ubiquitin via an iso-peptide bond as fluorescence polarisation substrate. Reactions were read immediately after addition of substrate and following a 2-hour incubation at room temperature. Readings were performed on a Pherastar Plus (BMG Labtech). λ Excitation 540 nm; λ Emission 590 nm.

UCHL1 = UCHL1 (Homo sapiens (Human), UniProt P09936); experiment: UCHL1 biochemical IC50 assay (fluorescence polarisation); settings: FLAG-UCHL1; 30 min preincubation at room temp; TAMRA-peptide-ubiquitin substrate 50 nM; read after 2-hour incubation; read-out: IC50 range
UCHL1, sequence (P09936 whole entry): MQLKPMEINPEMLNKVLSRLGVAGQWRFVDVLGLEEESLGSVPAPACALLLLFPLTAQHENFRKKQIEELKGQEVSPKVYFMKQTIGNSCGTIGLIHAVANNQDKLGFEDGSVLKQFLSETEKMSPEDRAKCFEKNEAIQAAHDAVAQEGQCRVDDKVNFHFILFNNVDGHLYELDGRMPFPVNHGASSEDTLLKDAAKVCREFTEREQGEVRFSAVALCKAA
Description: The UCHL1 construct was PCR amplified and cloned into a pFLAG-CMV-6a vector (Sigma-Aldrich) with an N-terminal FLAG tag. HEK293T cells were transfected with FLAG-UCHL1 using TransIT-LT1 transfection reagent (Mirus) according to the manufacturer's instructions. Cells were harvested 40 hours after transfection. […] The resin was washed two times with low salt buffer and one time with high salt buffer (20 mM Tris, pH 7.5, 500 mM NaCl, 0.5 mM EDTA, 5 mM beta-mercaptoethanol, protease inhibitors (complete mini, Roche) and phosphatase inhibitors (PhosSTOP mini, Roche). To elute the bound UCHL1, elution buffer (10 mM Tris, pH 7.5, 150 mM NaCl, 0.5 mM EDTA, 10% glycerol, 0.5% NP40, 5 mM beta-mercaptoethanol, 0.15 mg/ml 3× FLAG peptide (Sigma-Aldrich)) was added to the resin and incubated at 4° C. for 2.5 hours rotating. The resin was centrifuged at 4000 rpm for 30 seconds, and the supernatant containing purified FLAG-UCHL1 was removed and stored at −80° C.
UCHL1 was diluted in reaction buffer (20 mM Tris, pH 7.5, 100 mM NaCl, 0.05% Tween 20, 0.5 mg/ml BSA, 5 mM beta-mercaptoethanol) to the equivalent of 0, 0.01, 0.05, 0.1, 0.5, and 1 μl/well. Buffer was optimised for optimal temperature, pH, reducing agent, salts, time of incubation, and detergent. Reactions were initiated by the addition of 50 nM of TAMRA labelled peptide linked to ubiquitin via an iso-peptide bond as fluorescence polarisation substrate. Reactions were incubated at room temperature and read every 2 min for 120 min. Readings were performed on a Pherastar Plus (BMG Labtech). λ Excitation 540 nm; λ Emission 590 nm.
as §1, with “to” for “would”, “be” for “be 100,”, “0.03, 0.01” for “0.03”, “UCHL1” for “USP30”, “(20” for “(40”, “100 mM NaCl, 0.05%” for “0.005%”

USP30, sequence (Q70CQ3 57-517): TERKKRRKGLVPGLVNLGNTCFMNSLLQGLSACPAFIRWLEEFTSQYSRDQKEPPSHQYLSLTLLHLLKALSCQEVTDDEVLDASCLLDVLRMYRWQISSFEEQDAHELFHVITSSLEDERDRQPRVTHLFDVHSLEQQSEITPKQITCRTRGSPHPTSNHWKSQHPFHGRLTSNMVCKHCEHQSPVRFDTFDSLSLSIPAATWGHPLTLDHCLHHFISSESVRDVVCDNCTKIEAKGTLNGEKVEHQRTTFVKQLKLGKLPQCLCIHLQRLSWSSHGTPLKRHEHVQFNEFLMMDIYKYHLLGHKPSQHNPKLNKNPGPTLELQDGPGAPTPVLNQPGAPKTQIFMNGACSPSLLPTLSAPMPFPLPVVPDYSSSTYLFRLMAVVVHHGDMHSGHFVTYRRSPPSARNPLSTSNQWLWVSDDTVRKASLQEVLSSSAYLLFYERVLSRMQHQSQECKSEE

Row | Structure (SMILES) | IC50 (USP30) [nM] | IC50 (UCHL1) [nM]
1 | N#CN1CCC(NS(=O)(=O)c2ccc(-c3ccccc3)cc2)C1 (stereo not drawn) [Example 2, N-(1-cyanopyrrolidin-3-yl)-[1,1′-biphenyl]-4-sulfonamide] | 100 to 1000 | 1000 to 10000
2 | N#CN1CC[C@@H](NS(=O)(=O)c2ccc(-c3ccccc3)cc2)C1 [Example 3, (R)-N-(1-cyanopyrrolidin-3-yl)-[1,1′-biphenyl]-4-sulfonamide] | 100 to 1000 | 10000 to 100000
3 | N#CN1CCC(NS(=O)(=O)c2ccc(OCc3ccccc3)cc2)C1 (stereo not drawn) [Example 8] | 100 to 1000 | 1000 to 10000
4 | N#CN1CCC(NS(=O)(=O)c2ccc(-c3ccccc3)cn2)C1 (stereo not drawn) [Example 11, N-(1-cyanopyrrolidin-3-yl)-5-phenylpyridine-2-sulfonamide] | 100 to 1000 | 10000 to 100000
5 | N#CN1CCC(NS(=O)(=O)c2ccc(-c3ccc(F)cc3)cc2)C1 (stereo not drawn) [Example 12, N-(1-cyanopyrrolidin-3-yl)-4′-fluoro-[1,1′-biphenyl]-4-sulfonamide] | – | 1000 to 10000
6 | N#CN1CCC(NS(=O)(=O)c2ccc(-c3ccncc3)cc2)C1 (stereo not drawn) [Example 13, N-(1-cyanopyrrolidin-3-yl)-4-(pyridin-4-yl)benzenesulfonamide] | 100 to 1000 | 1000 to 10000
7 | N#CN1CCC(NS(=O)(=O)c2ccc(Oc3ccccc3)nc2)C1 (stereo not drawn) [Example 16, N-(1-cyanopyrrolidin-3-yl)-6-phenoxypyridine-3-sulfonamide] | 100 to 1000 | 10000 to 100000
8 | Cc1ccc(F)cc1S(=O)(=O)NC1CCN(C#N)C1 (stereo not drawn) [Example 17, N-(1-cyanopyrrolidin-3-yl)-5-fluoro-2-methylbenzenesulfonamide] | 1000 to 10000 | –
9 | N#CN1CCC(NS(=O)(=O)c2ccc(Oc3ccc(C(F)(F)F)cn3)cc2)C1 (stereo not drawn) [Example 19, N-(1-cyanopyrrolidin-3-yl)-4-((5-(trifluoromethyl)pyridin-2-yl)oxy)benzenesulfonamide] | 100 to 1000 | 100 to 1000
10 | N#CN1CCC(S(=O)(=O)N2CCN(c3ccc(F)cc3)CC2)C1 (stereo not drawn) [Example 27, 3-((4-(4-fluorophenyl)piperazin-1-yl)sulfonyl)pyrrolidine-1-carbonitrile] | 10000 to 100000 | –
11 | N#CN1CCC(S(=O)(=O)N2CCN(c3ccccn3)CC2)C1 (stereo not drawn) [Example 28] | 100 to 1000 | –
12 | N#CN1CCC(S(=O)(=O)N2CC(c3ccc(Cl)cc3)C2)C1 (stereo not drawn) [Example 34, 3-((3-(4-chlorophenyl)azetidin-1-yl)sulfonyl)pyrrolidine-1-carbonitrile] | 100 to 1000 | –
13 | N#CN1CC[C@H](S(=O)(=O)N2CC(c3ccc(Cl)cc3)C2)C1 [Example 35, (S)-3-((3-(4-chlorophenyl)azetidin-1-yl)sulfonyl)pyrrolidine-1-carbonitrile] | 100 to 1000 | –
14 | N#CN1CC[C@@H](S(=O)(=O)N2CC(c3ccc(Cl)cc3)C2)C1 [Example 36, (R)-3-((3-(4-chlorophenyl)azetidin-1-yl)sulfonyl)pyrrolidine-1-carbonitrile] | 100 to 1000 | –

Further lines, results first:

Row | IC50 (USP30) [nM] | IC50 (UCHL1) [nM] | Structure (SMILES)
15 | 10000 to 100000 | – | Cc1ccc(S(=O)(=O)N2CCO[C@@H]3CN(C#N)C[C@H]32)cc1 (racemic) [Example 22, rac-(4aR,7aR)-4-tosylhexahydropyrrolo[3,4-b][1,4]oxazine-6(2H)-carbonitrile]
16 | 100 to 1000 | – | Cc1ccc(CS(=O)(=O)N2CCO[C@H]3CN(C#N)C[C@H]32)cc1 (racemic) [Example 23, rac-(4aR,7aS)-4-(4-methylbenzyl)sulfonyl)hexahydropyrrolo[3,4-b][1,4]oxazine-6(2H)-carbonitrile]
17 | 100 to 1000 | 10000 to 100000 | N#CN1CCC(NS(=O)(=O)c2ccccc2-c2ccccc2)C1 (stereo not drawn) [Example 1, N-(1-cyanopyrrolidin-3-yl)-[1,1′-biphenyl]-2-sulfonamide]
18 | 100 to 1000 | 1000 to 10000 | N#CN1CC[C@H](NS(=O)(=O)c2ccc(-c3ccccc3)cc2)C1 [Example 4, (S)-N-(1-cyanopyrrolidin-3-yl)-[1,1′-biphenyl]-4-sulfonamide]
19 | – | 10000 to 100000 | N#CN1CCC(NS(=O)(=O)c2ccccc2)C1 (stereo not drawn) [Example 5, N-(1-cyanopyrrolidin-3-yl)benzenesulfonamide]
20 | 1000 to 10000 | 10000 to 100000 | N#CN1CC[C@H](NS(=O)(=O)c2ccccc2)C1 [Example 6, (S)-N-(1-cyanopyrrolidin-3-yl)benzenesulfonamide]
21 | 1000 to 10000 | – | N#CN1CC[C@@H](NS(=O)(=O)c2ccccc2)C1 [Example 7, (R)-N-(1-cyanopyrrolidin-3-yl)benzenesulfonamide]
22 | 100 to 1000 | 1000 to 10000 | N#CN1CCC(NS(=O)(=O)c2ccc(-c3cncnc3)cc2)C1 (stereo not drawn) [Example 9, N-(1-cyanopyrrolidin-3-yl)-4-(pyrimidin-5-yl)benzenesulfonamide]
23 | 1000 to 10000 | – | CN1CCN(c2ccc(S(=O)(=O)NC3CCN(C#N)C3)cc2)CC1 (stereo not drawn) [Example 10, N-(1-cyanopyrrolidin-3-yl)-4-(4-methylpiperazin-1-yl)benzenesulfonamide]
24 | 100 to 1000 | 10000 to 100000 | N#CN1CCC(NS(=O)(=O)c2ccc(N3CCCCC3)cc2)C1 (stereo not drawn) [Example 14, N-(1-cyanopyrrolidin-3-yl)-4-(piperidin-1-yl)benzenesulfonamide]
25 | 100 to 1000 | 1000 to 10000 | Cn1cc(-c2ccc(S(=O)(=O)NC3CCN(C#N)C3)cc2)cn1 (stereo not drawn) [Example 15, N-(1-cyanopyrrolidin-3-yl)-4-(1-methyl-1H-pyrazol-4-yl)benzenesulfonamide]
26 | 1000 to 10000 | 10000 to 100000 | CC(C)c1ccc(S(=O)(=O)NC2CCN(C#N)C2)cc1 (stereo not drawn) [Example 18, N-(1-cyanopyrrolidin-3-yl)-4-isopropylbenzenesulfonamide]
27 | 100 to 1000 | 1000 to 10000 | CN([C@@H]1CCN(C#N)C1)S(=O)(=O)c1ccc(-c2cccnc2)cc1 [Example 20, (R)—N-(1-cyanopyrrolidin-3-yl)-N-methyl-4-(pyridin-3-yl)benzenesulfonamide]
28 | 100 to 1000 | – | N#CN1C[C@H]2CCN(S(=O)(=O)c3ccc(-c4cccnc4)cc3)[C@H]2C1 [Example 21, (3aR,6aR)-1-((4-(pyridin-3-yl)phenyl)sulfonyl)hexahydropyrrolo[3,4-b]pyrrole-5(1H)-carbonitrile]
29 | 100 to 1000 | 10000 to 100000 | Cn1nccc1C(=O)Nc1ccc(S(=O)(=O)NC2CCN(C#N)C2)cn1 (stereo not drawn) [Example 24, N-(5-(N-(1-cyanopyrrolidin-3-yl)sulfamoyl)pyridin-2-yl)-1-methyl-1H-pyrazole-5-carboxamide]
30 | 100 to 1000 | 1000 to 10000 | CN(C1CCN(C#N)C1)S(=O)(=O)c1ccc(Oc2ccc(C(F)(F)F)cn2)cc1 (stereo not drawn) [Example 25, N-(1-cyanopyrrolidin-3-yl)-N-methyl-4-((5-(trifluoromethyl)pyridin-2-yl)oxy)benzenesulfonamide]
31 | 1000 to 10000 | – | N#CN1CCC(S(=O)(=O)N2CCN(c3ncccn3)CC2)C1 (stereo not drawn) [Example 29, 3-((4-(pyrimidin-2-yl)piperazin-1-yl)sulfonyl)pyrrolidine-1-carbonitrile]
32 | < 100 | – | N#CN1CCC(S(=O)(=O)N2CCC(c3ccc(Cl)cc3)CC2)C1 (stereo not drawn) [Example 30, 3-((4-(4-chlorophenyl)piperidin-1-yl)sulfonyl)pyrrolidine-1-carbonitrile]
33 | 100 to 1000 | – | N#CN1CCC(S(=O)(=O)N2CCC(Cc3ccccc3)CC2)C1 (stereo not drawn) [Example 33, 3-((4-benzylpiperidin-1-yl)sulfonyl)pyrrolidine-1-carbonitrile]
34 | 10000 to 100000 | – | N#CN1CCC(S(=O)(=O)N2CC(Oc3ccccc3)C2)C1 (stereo not drawn) [Example 37, 3-((3-phenoxyazetidin-1-yl)sulfonyl)pyrrolidine-1-carbonitrile]
